We go through three compounds from ChEMBL document CHEMBL1154980, “Tetrapeptides possessing a unique skeleton, JBIR-34 and JBIR-35, isolated from a sponge-derived actinomycete, Streptomyces sp. Sp080513GE-23” (J Nat Prod, 2010).

The source made the active and inactive calls. No cut-off for these calls is given here.

By IC50 is commonly meant the point on the concentration scale where inhibition reaches its midpoint.

The test system of assay [1] is Radical scavenging activity. The experiment in a line: Antioxidant activity assessed as DPPH radical scavenging activity after 1 hr. The assay is classed as functional. (The DPPH test is a chemical assay of radical scavenging.)
For assay [2], the system named is Micrococcus luteus. Put plainly: Antibacterial activity against Micrococcus luteus. The assay is classed as functional, organism-based.
For assay [3], the system named is Escherichia coli. Put plainly: Antibacterial activity against Escherichia coli. The assay is classed as functional, organism-based.

For the compound `Cc1c(C)c2c(c(C)c1O)CC[C@@](C)(CCC[C@H](C)CCC[C@H](C)CCCC(C)C)O2` [ALPHA-TOCOPHEROL], the IC50 in assay [1] was 50 µM.
`C[C@@H](NC(=O)[C@@]1(C)COC(c2cn(C)c3cc(Cl)cc(O)c23)=N1)C(=O)N[C@@H](CO)C(=O)O`: the half-inhibitory concentration (IC50) in assay [1] was 2500 µM. The outcome in assay [2] and in assay [3] was inactive.
As for `Cc1c(Cl)cc2c(c(C3=N[C@@](C)(C(=O)N[C@H](C)C(=O)N[C@@H](CO)C(=O)O)CO3)cn2C)c1O`, in assay [1], the IC50 was found to be 1000 µM. For the same compound, the result in assay [2] and in assay [3] was inactive.
